Data as given in patent publication US10828305B2 (SHANGHAI PHARMACEUTICALS HOLDING CO., LTD., priority 2016, dated 2020).

Tests used:
[1] = target: ErbB2 kinase (Homo sapiens, UniProt P04626); test: Enzymatic experiment on ErbB2 (HTRF kinEASE-TK); assay type: biochemical; settings: ATP 4 μM; read-out: Kinase IC50 (nM) in vitro ErbB2
In short: (§1)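 HTRF kinEASE-TK with biotinylated TK substrate in HEPES pH 7.0 buffer containing MnCl2, MgCl2 and DTT; ErbB2 at 0.06 ng/μl with 4 μM ATP, EGFR at 0.06 units/μl with 1.65 μM ATP, 30 min at room temperature after 5 min enzyme/substrate–compound preincubation. Ten-point 3-fold dilutions; Eu antibody/SA-XL665 detection, 665/620 ratio.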

[2] = target: EGFR kinase (Homo sapiens, UniProt P00533); test: Enzymatic experiment on EGFR (HTRF kinEASE-TK); assay type: biochemical; settings: ATP 1.65 μM; read-out: Kinase IC50 (nM) in vitro EGFR
Chain of EGFR kinase (P00533 25-1210): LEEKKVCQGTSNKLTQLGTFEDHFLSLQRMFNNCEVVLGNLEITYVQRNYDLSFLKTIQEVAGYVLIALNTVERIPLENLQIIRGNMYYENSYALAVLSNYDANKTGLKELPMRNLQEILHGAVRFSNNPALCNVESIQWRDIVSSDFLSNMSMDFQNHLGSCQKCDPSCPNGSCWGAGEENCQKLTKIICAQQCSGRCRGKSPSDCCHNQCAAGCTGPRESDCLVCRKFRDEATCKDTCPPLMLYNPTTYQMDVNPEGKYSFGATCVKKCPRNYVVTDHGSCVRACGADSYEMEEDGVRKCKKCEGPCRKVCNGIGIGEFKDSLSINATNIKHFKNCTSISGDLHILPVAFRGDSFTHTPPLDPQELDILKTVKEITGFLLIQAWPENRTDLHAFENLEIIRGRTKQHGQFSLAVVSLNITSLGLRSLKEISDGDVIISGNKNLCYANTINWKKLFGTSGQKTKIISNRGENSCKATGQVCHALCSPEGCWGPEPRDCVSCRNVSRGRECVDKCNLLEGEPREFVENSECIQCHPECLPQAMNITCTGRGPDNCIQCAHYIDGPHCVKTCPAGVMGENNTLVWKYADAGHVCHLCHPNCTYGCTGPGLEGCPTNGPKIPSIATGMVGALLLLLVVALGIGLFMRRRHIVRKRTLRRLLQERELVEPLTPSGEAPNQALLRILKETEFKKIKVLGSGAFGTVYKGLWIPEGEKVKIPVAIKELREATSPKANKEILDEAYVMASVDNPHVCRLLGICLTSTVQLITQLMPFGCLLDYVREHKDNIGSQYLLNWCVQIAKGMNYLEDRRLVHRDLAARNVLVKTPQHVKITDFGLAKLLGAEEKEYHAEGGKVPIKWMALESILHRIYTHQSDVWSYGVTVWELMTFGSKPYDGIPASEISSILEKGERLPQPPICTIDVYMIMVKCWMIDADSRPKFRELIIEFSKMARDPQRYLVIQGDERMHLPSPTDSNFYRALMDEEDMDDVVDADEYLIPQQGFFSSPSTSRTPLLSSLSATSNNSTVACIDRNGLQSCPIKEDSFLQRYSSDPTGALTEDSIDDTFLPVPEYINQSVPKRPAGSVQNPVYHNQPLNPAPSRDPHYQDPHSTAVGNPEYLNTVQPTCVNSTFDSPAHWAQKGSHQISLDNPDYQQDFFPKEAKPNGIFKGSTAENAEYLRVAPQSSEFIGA
In short: as §1

[3] = tested on: N87; test: Proliferation inhibition assay in vitro, N87 (CellTiter-Glo); assay type: cell-based; settings: Homo sapiens; 72 hours; read-out: IC50(nM) cell N87
In short: (§2)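 Cells were seeded at 8.8×10^4 cells/mL for BT-474 or 6.6×10^4 cells/mL for N87 and grown overnight. Compound was added at 9 concentrations in duplicate for 72 h at 37 °C, 5% CO2. Viability was measured by CellTiter-Glo.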

[4] = tested on: BT-474; test: Proliferation inhibition assay in vitro, BT-474 (CellTiter-Glo); assay type: cell-based; settings: Homo sapiens, 72 hours, read-out: IC50(nM) cell BT-474
In short: as §2

[5] = tested on: human gastric cancer NCI-N87 xenograft; test: HER2 overexpressing human gastric cancer NCI-N87 xenograft model in nude mice; assay type: in vivo, Balb/c nude mice; settings: 50MPK (BID), oral, 22 days
[6] = tested on: human breast cancer BT-474 xenograft; settings: 50MPK (BID), oral, 20 days

Chain of ErbB2 kinase (P04626 23-1255): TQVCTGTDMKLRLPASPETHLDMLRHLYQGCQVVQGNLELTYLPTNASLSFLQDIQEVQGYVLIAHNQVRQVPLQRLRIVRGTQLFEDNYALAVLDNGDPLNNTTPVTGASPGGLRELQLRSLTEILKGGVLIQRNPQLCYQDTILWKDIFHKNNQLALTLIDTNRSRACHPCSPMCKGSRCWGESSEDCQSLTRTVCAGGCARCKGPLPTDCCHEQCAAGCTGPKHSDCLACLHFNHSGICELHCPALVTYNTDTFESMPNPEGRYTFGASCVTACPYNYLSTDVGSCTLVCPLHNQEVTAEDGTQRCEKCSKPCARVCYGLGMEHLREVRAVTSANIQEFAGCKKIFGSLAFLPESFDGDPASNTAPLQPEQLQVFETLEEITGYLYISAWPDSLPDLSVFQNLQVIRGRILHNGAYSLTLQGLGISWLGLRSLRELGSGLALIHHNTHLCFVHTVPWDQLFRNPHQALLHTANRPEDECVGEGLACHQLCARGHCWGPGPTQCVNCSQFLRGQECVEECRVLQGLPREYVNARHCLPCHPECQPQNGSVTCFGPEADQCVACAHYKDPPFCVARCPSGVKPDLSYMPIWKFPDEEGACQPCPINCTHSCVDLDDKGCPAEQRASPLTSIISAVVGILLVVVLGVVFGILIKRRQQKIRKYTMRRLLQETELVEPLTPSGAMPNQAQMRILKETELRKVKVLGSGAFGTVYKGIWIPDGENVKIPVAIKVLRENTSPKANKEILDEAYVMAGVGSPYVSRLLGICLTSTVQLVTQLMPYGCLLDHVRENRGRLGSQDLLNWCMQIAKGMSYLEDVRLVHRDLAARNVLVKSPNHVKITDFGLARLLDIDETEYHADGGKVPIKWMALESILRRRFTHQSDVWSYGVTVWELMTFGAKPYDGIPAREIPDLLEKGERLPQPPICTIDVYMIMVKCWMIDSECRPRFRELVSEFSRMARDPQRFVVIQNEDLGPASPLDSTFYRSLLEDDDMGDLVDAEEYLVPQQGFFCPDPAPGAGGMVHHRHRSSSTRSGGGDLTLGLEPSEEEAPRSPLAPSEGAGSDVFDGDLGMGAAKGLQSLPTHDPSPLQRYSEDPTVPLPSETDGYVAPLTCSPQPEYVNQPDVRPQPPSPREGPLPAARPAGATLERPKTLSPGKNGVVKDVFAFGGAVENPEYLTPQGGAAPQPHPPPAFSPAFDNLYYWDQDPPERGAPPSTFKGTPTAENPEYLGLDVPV

Compound	IC50 [1]	IC50 [2]	IC50 [4]	IC50 [3]	tumor volume inhibition rate (GI %) [5]	tumor volume inhibition rate (GI %) [6]
CC(=O)C(=O)Nc1ccc2ncnc(Nc3ccc(Oc4cc5nncn5cn4)c(C)c3)c2c1 [Embodiment 128, N-(4-((4-([1,2,4]triazolo[4,3-c]pyrimidin-7-yloxy)-3-methylphenyl)amino)quinazolin-6-yl)-2-oxopropionamide]	14.8 nM	28.7 nM	484 nM	868 nM		
CS(=O)(=O)CCNCc1ccc(-c2ccc3ncnc(Nc4ccc(OCc5cccc(F)c5)c(Cl)c4)c3c2)o1 [Lapatinib, reference compound]					87.8%	19.2%

The remaining compounds from weak to strong by IC50 [1], led by results:

IC50 [1]	IC50 [2]	IC50 [4]	Compound	IC50 [3]	tumor volume inhibition rate (GI %) [5]	tumor volume inhibition rate (GI %) [6]
6.7 nM	53 nM	143 nM	Cc1cc(Nc2ncnc3ccc(NC4=NC(C)(C)CO4)cc23)cc(C)c1Oc1cc2nncn2cn1 [Embodiment 126, N^4-(4-([1,2,4]triazolo[4,3-c]pyrimidin-7-yloxy)-3,5-dimethylphenyl)-N^6-(4,4-dimethyl-4,5-dihydrooxazol-2-yl)quinazolin-4,6-diamine]	82.9 nM		
5.6 nM	6.6 nM	8 nM	C=C(F)C(=O)Nc1cc2c(Nc3ccc(Oc4cc5nncn5cn4)c(C)c3)ncnc2cc1OCC [Embodiment 127, N-(4-((4-([1,2,4]triazolo[4,3-c]pyrimidin-7-yloxy)-3-methylphenyl)amino)-7-ethoxyquinazolin-6-yl)-2-fluoroacrylamide]	30.7 nM		
4.4 nM	56.9 nM	189 nM	CCC1COC(Nc2ccc3ncnc(Nc4ccc(Oc5cc6nncn6cn5)c(C)c4)c3c2)=N1 (stereo not drawn) [Embodiment 129, N^4-(4-([1,2,4]triazolo[4,3-c]pyrimidin-7-yloxy)-3-methylphenyl)-N^6-(4-ethyl-4,5-dihydrooxazol-2-yl)quinazolin-4,6-diamine]	121 nM		
